Results published in patent publication US20230002373A1, “COMPOUNDS AND COMPOSITIONS FOR TREATING CONDITIONS ASSOCIATED WITH STING ACTIVITY” (IFM Due, Inc., priority 2019, published 2023).

The molecules below were run against T1, hSTING (Homo sapiens, UniProt Q86WV6, G230A/H232R/R293Q/R71H) (assay: STING reporter assay (luciferase) in THP1-Dual KO-IFNAR2 cells stimulated with 2′3′cGAMP). Conditions: 15 μM 2′3′cGAMP, 24 h, class symbols.
T1 construct: host or cells: THP1-Dual KO-IFNAR2 cells
Format: cell-based
Description: STING pathway activation by the compounds described herein was measured using THP1-Dual™ cells (KO-IFNAR2).
THP1-Dual™ KO-IFNAR2 Cells (obtained from invivogen) were maintained in RPMI, 10% FCS, 5 ml P/S, 2 mM L-glut, 10 mM Hepes, and 1 mM sodium pyruvate. Compounds were spotted in empty 384 well tissue culture plates (Greiner 781182) by Echo for a final concentration of 0.0017-100 μM. Cells were plated into the TC plates […], 2×10E6 cells/mL. For activation with STING ligand, 2′3′cGAMP (MW 718.38, obtained from Invivogen), was prepared in Optimem media.
The following solutions were prepared for each 1×384 plate: • Solution A: 2 mL Optimem with one of the following stimuli: • 60 μL of 10 mM 2′3′cGAMP->150 μM stock • Solution B: 2 mL Optimem with 60 μL Lipofectamine 2000->Incubate 5 min at RT
2 mL of solution A and 2 ml Solution B was mixed and incubated for 20 min at room temperature (RT). 20 uL of transfection solution (A+B) was added on top of the plated cells, with a final 2′3′cGAMP concentration of 15 μM. The plates were then centrifuged immediately at 340 g for 1 minute, after which they were incubated at 37° C., 5% CO2, >98% humidity for 24 h. Luciferase reporter activity was then measured. EC50 values were calculated by using standard methods known in the art.
Luciferase reporter assay: 10 μL of supernatant from the assay was transferred to white 384-plate with flat bottom and squared wells. One pouch of QUANTI-Luc™ Plus was dissolved in 25 mL of water. 100 μL of QLC Stabilizer per 25 mL of QUANTI-Luc™ Plus solution was added. 50 μL of QUANTI-Luc™ Plus/QLC solution per well was then added. Luminescence was measured on a Platereader (e.g., Spectramax I3X (Molecular Devices GF3637001)).
Luciferase reporter activity was then measured. EC50 values were calculated by using standard methods known in the art.

T1 sequence (Q86WV6 whole entry R71H/G230A/H232R/R293Q): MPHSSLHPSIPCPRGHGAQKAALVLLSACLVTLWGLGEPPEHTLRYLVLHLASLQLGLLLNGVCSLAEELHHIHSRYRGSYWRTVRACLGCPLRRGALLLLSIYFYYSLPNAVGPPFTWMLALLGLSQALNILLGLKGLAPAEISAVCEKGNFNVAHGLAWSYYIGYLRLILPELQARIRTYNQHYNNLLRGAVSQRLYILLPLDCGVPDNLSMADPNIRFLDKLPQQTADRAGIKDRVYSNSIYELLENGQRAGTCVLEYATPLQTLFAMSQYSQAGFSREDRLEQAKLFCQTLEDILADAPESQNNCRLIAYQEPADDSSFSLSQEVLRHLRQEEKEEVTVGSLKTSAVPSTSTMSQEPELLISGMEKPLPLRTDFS

| Compound | EC50 |
| --- | --- |
| O=C(NCC12CC3CC(CC(C3)C1)C2)C(=O)Nc1c[nH]c2ccncc12 [Compound 124, N^1-(adamantan-1-ylmethyl)-N^2-(1H-pyrrolo[3,2-c]pyridin-3-yl)oxalamide] | 1 to 5 µM |
| O=C(NCc1cccc2c1OC(F)(F)O2)C(=O)Nc1c[nH]c2ccncc12 [Compound 158, N1-((2,2-difluorobenzo-[d][1,3]dioxol-4-yl)methyl)-N2-(1H-pyrrolo[3,2-c]pyridin-3-yl)oxalamide] | 1 to 5 µM |
| CC(CNC(=O)C(=O)Nc1c[nH]c2cccnc12)Oc1ccc(C(F)(F)F)cc1 (stereo not shown) [Compound 137, N1-(1H-pyrrolo[3,2-b]pyridin-3-yl)-N2-(2-(4-(trifluoromethyl)phenoxy)propyl)oxalamide] | 5 to 100 µM |
| O=C(NCc1ccc(Cl)cc1C(F)(F)F)C(=O)Nc1c[nH]c2cccnc12 [Compound 140, N1-(4-chloro-2-(trifluoromethyl)benzyl)-N2-(1H-pyrrolo[3,2-b]pyridin-3-yl)oxalamide] | 1 to 5 µM |
| CC(CNC(=O)C(=O)Nc1c[nH]c2ccncc12)Oc1ccc(C(F)(F)F)cc1 (stereo not shown) [Compound 164, N1-(1H-pyrrolo[3,2-c]pyridin-3-yl)-N2-(2-(4-(trifluoromethyl)-phenoxy)propyl)-oxalamide] | 1 to 5 µM |
| Cc1ccc(CNC(=O)C(=O)Nc2c[nH]c3ccc(-c4cnn(C)c4)nc23)cc1C(F)(F)F [Compound 130] | 1 to 5 µM |
| O=C(NCCc1ncc(C(F)(F)F)cc1Cl)C(=O)Nc1c[nH]c2ccncc12 [Compound 166, N1-(2-(3-chloro-5-(trifluoromethyl)-pyridin-2-yl)ethyl)-N2-(1H-pyrrolo[3,2-c]pyridin-3-yl)oxalamide] | 5 to 100 µM |
| COc1ccc(CNC(=O)C(=O)Nc2c[nH]c3ccncc23)cc1C(F)(F)F [Compound 165, N1-(4-methoxy-3-(trifluoromethyl)-benzyl)-N2-(1H-pyrrolo[3,2-c]pyridin-3-yl)oxalamide] | 0.2 to 1 µM |
| O=C(Nc1ccc(C(F)(F)F)cc1)C(=O)Nc1c[nH]c2ncc(F)cc12 [Compound 125] | 1 to 5 µM |
| O=C(NCCOc1ccc(C(F)(F)F)cc1)C(=O)Nc1c[nH]c2ccncc12 [Compound 159, N1-(1H-pyrrolo[3,2-c]pyridin-3-yl)-N2-(2-(4-(trifluoromethyl)-phenoxy)ethyl)oxalamide] | 1 to 5 µM |
| Cc1c(CNC(=O)C(=O)Nc2c[nH]c3ccncc23)cccc1C(F)(F)F [Compound 142, N1-(2-methyl-3-(trifluoromethyl)-benzyl)-N2-(1H-pyrrolo[3,2-c]pyridin-3-yl)oxalamide] | 0.2 to 1 µM |
| O=C(NCc1cccc(OC(F)(F)F)c1)C(=O)Nc1c[nH]c2ccncc12 [Compound 173, N1-(1H-pyrrolo[3,2-c]pyridin-3-yl)-N2-(3-(trifluoromethoxy)-benzyl)oxalamide] | 1 to 5 µM |
| Cc1cc(NC(=O)C(=O)Nc2c[nH]c3ccncc23)cc(C(F)(F)F)c1 [Compound 115, N^1-(3-methyl-5-(trifluoromethyl)phenyl)-N^2-(1H-pyrrolo[3,2-c]pyridin-3-yl)oxalamide] | 0.2 to 1 µM |
| O=C(NCc1ccccc1C(F)(F)F)C(=O)Nc1c[nH]c2ccncc12 [Compound 172, N1-(1H-pyrrolo[3,2-c]pyridin-3-yl)-N2-(2-(trifluoromethyl)-benzyl)-oxalamide] | 5 to 100 µM |
| O=C(Nc1ccc(C2CCCCC2)nc1)C(=O)Nc1c[nH]c2ncc(F)cc12 [Compound 102, N^1-(6-cyclohexyl-pyridin-3-yl)-N^2-(5-fluoro-1H-pyrrolo[2,3-b]pyridin-3-yl)oxalamide] | 1 to 5 µM |
| O=C(NCCc1ccc(C(F)(F)F)cc1)C(=O)Nc1c[nH]c2ccncc12 [Compound 153, N1-(1H-pyrrolo[3,2-c]pyridin-3-yl)-N2-(4-(trifluoromethyl)-phenethyl)-oxalamide] | 0.2 to 1 µM |
| O=C(NCc1ccc(C(F)(F)F)c(Cl)c1)C(=O)Nc1c[nH]c2ncc(F)c(F)c12 [Compound 131] | 5 to 100 µM |
| O=C(Nc1c[nH]c2ccncc12)C(=O)NC1CCC2(CCCCC2)CC1 [Compound 121, N^1-(1H-pyrrolo[3,2-c]pyridin-3-yl)-N^2-(spiro[5.5]undecan-3-yl)oxalamide] | 1 to 5 µM |

Other lines, results leading:

| EC50 | Compound |
| --- | --- |
| 0.2 to 1 µM | COc1ccc2[nH]cc(NC(=O)C(=O)NCc3ccc(C)c(C(F)(F)F)c3)c2n1 [Compound 215] |
| 1 to 5 µM | Cc1c(NC(=O)C(=O)Nc2c[nH]c3ccncc23)cccc1C(F)(F)F [Compound 175, N1-(2-methyl-3-(trifluoromethyl)-phenyl)-N2-(1H-pyrrolo[3,2-c]pyridin-3-yl)oxalamide] |
| 5 to 100 µM | O=C(Nc1c[nH]c2ncc(F)cc12)C(=O)N[C@@H]1CCC2(CCCC2)C1 (single isomer, unassigned) [Compound 200] |
| 0.2 to 1 µM | Cc1ccc2[nH]cc(NC(=O)C(=O)Nc3ccc(C4CCCCC4)cn3)c2n1 [Compound 207] |
| 0.2 to 1 µM | O=C(NCc1ccc(Cl)c(OC(F)(F)F)c1)C(=O)Nc1c[nH]c2ccncc12 [Compound 212] |
| 0.2 to 1 µM | O=C(NCc1ccc(OC(F)(F)F)c(Cl)c1)C(=O)Nc1c[nH]c2ccncc12 [Compound 211] |
| 0.2 to 1 µM | Cc1ccc(CNC(=O)C(=O)Nc2c[nH]c3cc(F)cnc23)cc1C(F)(F)F [Compound 174] |
| 1 to 5 µM | O=C(Nc1ccc(C(F)(F)F)c(Cl)c1)C(=O)Nc1c[nH]c2cccnc12 [Compound 217] |
| 0.2 to 1 µM | O=C(Nc1ccc(C2CCCCC2)cn1)C(=O)Nc1c[nH]c2ccc(Br)nc12 [Compound 210] |
| 5 to 100 µM | O=C(Nc1c[nH]c2ncc(F)cc12)C(=O)NC1CCC2(CCCC2)C1 (stereo not shown) [Compound 203] |
| 1 to 5 µM | Cc1ccc2[nH]cc(NC(=O)C(=O)Nc3cnc(N4CCC(F)(F)CC4)c(Cl)c3)c2n1 [Compound 195, N-(5-chloro-6-(4,4-difluoropiperidin-1-yl)pyridin-3-yl)-N′-(5-methyl-1H-pyrrolo[3,2-b]pyridin-3-yl)oxalamide] |
| 1 to 5 µM | CC(C)n1cc(-c2ccc3[nH]cc(NC(=O)C(=O)Nc4ccc(C5CCCCC5)cn4)c3n2)cn1 [Compound 206, N-(5-cyclohexylpyridin-2-yl)-N′-(5-(1-isopropyl-1H-pyrazol-4-yl)-1H-pyrrolo[3,2-b]pyridin-3-yl)oxalamide] |
| 5 to 100 µM | O=C(Nc1c[nH]c2ncc(F)cc12)C(=O)NC1CCC2(CCCCC2)C1 (stereo not shown) [Compound 204, N-(5-fluoro-1H-pyrrolo[2,3-b]pyridin-3-yl)-N′-(spiro[4.5]decan-2-yl)oxalamide] |
| 1 to 5 µM | Cc1ccccc1N1C2CCC1CC(NC(=O)C(=O)Nc1c[nH]c3ncc(F)cc13)C2 (stereo not shown) [Compound 209, N-[5-fluoro-1H-pyrrolo[2,3-b]pyridin-3-yl]-N′-[8-(2-methylphenyl)-8-azabicyclo[3.2.1]octan-3-yl]ethanediamide] |
| 5 to 100 µM | O=C(Nc1c[nH]c2ncc(F)cc12)C(=O)N[C@@H]1CCCC2(CCCCC2)C1 (single isomer, unassigned) [Compound 197, N-[5-fluoro-1H-pyrrolo[2,3-b]pyridin-3-yl]-N′-[(2R or 2S)-spiro[5.5]undecan-2-yl]ethanediamide] |

Same assay, conditions: 15 μM 2′3′cGAMP, 24 h, numeric bounds

| EC50 | Compound |
| --- | --- |
| > 30 µM | O=C(NCCc1cccc(C(F)(F)F)c1)C(=O)Nc1c[nH]c2cccnc12 [Compound 149, N1-(1H-pyrrolo[3,2-b]pyridin-3-yl)-N2-(3-(trifluoromethyl)phenethyl)oxalamide] |
| > 30 µM | COc1ccc(CNC(=O)C(=O)Nc2c[nH]c3ccncc23)cc1Cl [Compound 168, N1-(3-chloro-4-methoxybenzyl)-N2-(1H-pyrrolo[3,2-c]pyridin-3-yl)oxalamide] |
| > 30 µM | O=C(NCCC1(C(F)(F)F)CC1)C(=O)Nc1c[nH]c2ccncc12 [Compound 161, N1-(1H-pyrrolo[3,2-c]pyridin-3-yl)-N2-(2-(1-(trifluoromethyl)-cyclopropyl)-ethyl)oxalamide] |
| > 30 µM | O=C(NCC1(c2ccccc2)CC1)C(=O)Nc1c[nH]c2ccncc12 [Compound 156, N1-((1-phenylcyclopropyl)-methyl)-N2-(1H-pyrrolo[3,2-c]pyridin-3-yl)oxalamide] |
| > 30 µM | O=C(Nc1ccc(OCC(F)(F)F)nc1)C(=O)Nc1c[nH]c2cccnc12 [Compound 150, N1-(1H-pyrrolo[3,2-b]pyridin-3-yl)-N2-(6-(2,2,2-trifluoroethoxy)pyridin-3-yl)oxalamide] |
| > 30 µM | O=C(NCC1CCc2ccccc2O1)C(=O)Nc1c[nH]c2cccnc12 (stereo not shown) [Compound 132, N1-(chroman-2-ylmethyl)-N2-(1H-pyrrolo[3,2-b]pyridin-3-yl)oxalamide] |
| > 30 µM | O=C(NCc1cccc(OC(F)(F)F)c1)C(=O)Nc1c[nH]c2cccnc12 [Compound 151, N1-(1H pyrrolo[3,2-b]pyridin-3-yl)-N2-(3-(trifluoro-methoxy)benzyl)oxalamide] |
